One assay concerns NF-κB. Nature of the assay: TNF-α-induced NF-κB-dependent luciferase expression in HEK cells. In kind it is cell-based. Conditions: luciferase in HEK/NF-κB cells, as described in Example 398; for inhibition at 1 µM: Homo sapiens, HEK293, 1 uM, read-out: NFkB inhibition @ 1 uM.
In another assay the test system is AP-1. Nature of the assay: PMA-induced AP-1 luciferase expression in HEK cells. Conditions: luciferase in HEK/AP-1 cells, as described in Example 398; for inhibition at 1 µM: AP1, 1 uM. The format is cell-based.
Another assay concerns carageenan-induced edema. The experiment in a line: Carrageenan-induced rat paw edema test (anti-inflammatory activity). In kind it is in vivo, Sprague-Dawley rats. The essentials:
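Sprague-Dawley rats (male and female, 150-250 g), fasted 18 h, given compound orally at 50 mg/kg in 0.1% sodium CMC (alternatively i.v., s.c. or i.p.). 1% carrageenan injected sub-plantar in right hind paw 1 h later. Paw displacement read again 3 h later; % protection = [(Control−Test)/Control]×100 versus saline control.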
On the technique in general: Carrageenan injected into the paw causes an acute inflammation.

The mark [1] stands for this setting: Rattus norvegicus, po, 3 h, rat paw edema, 50 mg/kg, reading 3 hours after carrageenan; [(Control−Test)/Control]×100%; read-out: % Protection P.
Where [2] appears, read: rat paw edema, 50 mg/kg, reading 3 hours after carrageenan; [(Control−Test)/Control]×100%; 50 mg/kg.
Setting [3] is: rat paw edema, 50 mg/kg, reading 3 hours after carrageenan; [(Control−Test)/Control]×100%.

The term inhibition denotes the relative decrease from the control value, in per cent. In the case of `Cc1ccc(C(=O)c2sc(Nc3ccc(Cl)cc3)nc2NC(=O)Nc2ccc(F)cc2)cc1` [Example 356, 1-[2-(4-Chloro-phenylamino)-5-(4-methyl-benzoyl)-thiazol-4-yl]-3-(4-fluoro-phenyl)-urea], the inhibition at 1 µM in the assay with NF-κB amounted to 54.6%; in the assay on AP-1, 48.4%. In addition, in the assay with carageenan-induced edema (setting [1]), the inhibition in vivo at 50 mg/kg was determined as 69.5%.

On to `CSc1ccc(C(=O)c2cc(-c3cccnc3)c(N3CCOCC3)s2)cc1` [Example 107, (4-Methylsulfanyl-phenyl)-(5-morpholin-4-yl-4-pyridin-3-yl-thiophen-2-yl)-methanone], for which, in the assay with NF-κB, the “NFkB inhibition @ 1 uM” value is recorded as 1.69. Further, the “AP-1 inhibition @ 1 uM” value in the assay with AP-1 is recorded as 19.05. Also, the “% Protection P” value with carageenan-induced edema (setting [2]) was −42.44%.

As to `CC(=O)c1ccc(-n2c(-c3cc(-c4ccncc4)c(N4CCOCC4)s3)nc3ccccc3c2=O)cc1` [Example 319, 3-(4-acetyl-phenyl)-2-(5-morpholin-4-yl-4-pyridin-4-yl-thiophen-2-yl)-3Hquinazolin-4-one], the inhibition at 1 µM in the assay with NF-κB was 66%; with AP-1, 84%. Besides, the inhibition in vivo at 50 mg/kg with carageenan-induced edema (setting [1]) was 81%.

Regarding `CS(=O)(=O)c1ccc(-c2cc(-c3nc4ccccc4c(=O)n3-c3ccc(Cl)cc3)sc2N2CCOCC2)cc1` [Example 312, 2-[4-(4-Methanesulphonyl-phenyl)-5-morpholin-4-yl-thiophen-2-yl]-3-(4-chloro-phenyl)-3H-quinazolin-4-one], the figures for the inhibition at 1 µM in the assay on NF-κB and with AP-1 were 0% and 7%, respectively. For the same molecule, the inhibition in vivo at 50 mg/kg in the assay with carageenan-induced edema (setting [1]) worked out at 57%.

Regarding `COc1cccc(-n2c(-c3cc(-c4ccc(S(C)(=O)=O)cc4)c(N4CCOCC4)s3)nc3ccccc3c2=O)c1` [Example 300, 2-[4-(4-Methanesulphonyl-phenyl)-5-morpholin-4-yl-thiophen-2-yl]-3-(3-methoxy-phenyl)-3H-quinazolin-4-one], the inhibition at 1 µM was 20% in the assay on NF-κB and -4% in the assay with AP-1. The inhibition in vivo at 50 mg/kg in the assay with carageenan-induced edema (setting [1]) was determined as 48%.

With `O=c1c2ccccc2nc(-c2cc(-c3ccncc3)c(N3CCOCC3)s2)n1-c1ccc(Cl)cc1` [Example 313, 3-(4-Chloro-phenyl)-2-(5-morpholin-4-yl-4-pyridin-4-yl-thiophen-2-yl)-3H-quinazolin-4-one], the values for the inhibition at 1 µM with NF-κB and with AP-1 were 68% and 32%, respectively. In the assay with carageenan-induced edema (setting [1]), the inhibition in vivo at 50 mg/kg stood at 52%.

`CC(=O)Nc1ccc(-c2cc(C(=O)c3ccncc3)sc2N2CCOCC2)cc1` [Example 75, N-{4-[2-Morpholin-4-yl-5-(pyridine-4-carbonyl)-thiophene-3-yl]-phenyl}-acetamide]: the inhibition at 1 µM came out at 17.4% in the assay with NF-κB and 45.5% with AP-1. Moreover, the inhibition in vivo at 50 mg/kg in the assay with carageenan-induced edema (setting [1]) amounted to 45.7%.

Regarding `CS(=O)(=O)c1ccc(C(=O)c2cc(-c3ccc(Cl)cc3)c(N3CCOCC3)s2)cc1` [Example 84, [4-(4-Chloro-phenyl)-5-morpholin-4-yl-thiophen-2-yl]-(4-methansulfonyl-phenyl)-methanone], the values for the inhibition at 1 µM in the assay on NF-κB and in the assay with AP-1 were -11.7% and 30.9%, respectively. For the same molecule, the inhibition in vivo at 50 mg/kg in the assay on carageenan-induced edema (setting [1]) is 23%.

For `Cc1ccc(C(=O)c2cc(-c3ccccc3)c(N3CCOCC3)s2)cc1` [Example 43, (5-Morpholin-4-yl-4-phenyl-thiophen-2-yl)-p-tolyl-methanone], the inhibition at 1 µM with NF-κB is -15.3%; with AP-1, 27.3%. For the same molecule, in the assay on carageenan-induced edema (setting [1]), the inhibition in vivo at 50 mg/kg is 5.33%.

Regarding `CNc1nc(-c2ccccc2)c(C(=O)c2sc(NC)nc2-c2ccccc2)s1` [Example 125, Bis-(2-methylamino-4-Phenyl-thiazole-5-yl)-methanone], the results for the inhibition at 1 µM in the assay with NF-κB and in the assay with AP-1 were 27.1% and 23.8%, respectively. Besides, the inhibition in vivo at 50 mg/kg in the assay with carageenan-induced edema (setting [1]) came to 23.2%.

With `O=C(c1ccc(Cl)cc1)c1sc(N2CCN(C(=O)c3ccco3)CC2)nc1-c1ccccc1` [Example 383, (4-Chloro-phenyl)-{2-[4-(furan-2-carbonyl)-piperazin-1-yl]-4-phenyl-thiazol-5-yl}-methanone], the inhibition at 1 µM was -0.23% with NF-κB and 13.3% in the assay on AP-1. For the same molecule, the inhibition in vivo at 50 mg/kg with carageenan-induced edema (setting [1]) is 62%.

With `Cc1ccc(Nc2nc(-c3ccccc3)c(C(=O)c3sc(Nc4ccc(C)cc4)nc3-c3ccccc3)s2)cc1` [Example 394, Bis-[2-(4-methyl-phenylamino)-4-phenyl-thiazol-5-yl]-methanone], the inhibition at 1 µM in the assay with NF-κB amounted to 18.7%; with AP-1, 41.9%. The inhibition in vivo at 50 mg/kg with carageenan-induced edema (setting [1]) worked out at 56%.

As to `CS(=O)(=O)c1ccc(-c2cc(-c3nc4ccccc4c(=O)n3-c3ccccc3)sc2N2CCOCC2)cc1` [Example 275, 2-[4-(4-Methanesulfonyl-phenyl)-5-morpholin-4-yl-thiophen-2-yl]-3-phenyl-3H-quinazolin-4-one], the inhibition at 1 µM in the assay with NF-κB amounted to 9%; in the assay with AP-1, 28%. In the assay on carageenan-induced edema (setting [1]), the inhibition in vivo at 50 mg/kg worked out at 25%.

In the case of `COc1ccc(C(=O)c2sc(Nc3ccccc3)nc2NC(=O)Nc2ccc(F)cc2)cc1` [Example 117, 1-(4-Fluoro-phenyl)-3-[5-(4-methoxy-benzoyl)-2-phenylamino-thiazol-4-yl]-urea], the inhibition at 1 µM in the assay with NF-κB amounted to 22.1%; in the assay on AP-1, 51%. The “% Protection P” value in the assay with carageenan-induced edema (setting [2]) amounted to 58.62%.

With `COc1ccccc1-n1c(-c2cc(-c3ccc(S(C)(=O)=O)cc3)c(N3CCOCC3)s2)nc2ccccc2c1=O` [Example 297, 2-[4-(4-Methanesulphonyl-phenyl)-5-morpholin-4-yl-thiophen-2-yl]-3-(2-methoxy-phenyl)-3H-quinazolin-4-one], the inhibition at 1 µM with NF-κB stood at 55%; in the assay on AP-1, 33%. Further, the inhibition in vivo at 50 mg/kg with carageenan-induced edema (setting [1]) was 63%.

Turning to `O=C(c1cc(-c2ccc(Cl)cc2)c(N2CCOCC2)s1)c1ccc(Cl)cc1Cl` [Example 82, [4-(4-Chloro-phenyl)-5-morpholin-4-yl-thiophen-2-yl]-(2,4-dichloro-phenyl)-methanone], the inhibition at 1 µM with NF-κB turned out to be 0.6%; with AP-1, 34.3%. In addition, the inhibition in vivo at 50 mg/kg with carageenan-induced edema (setting [1]) is 22.8%.

As for `Cc1nc(Nc2ccc(Cl)cc2)sc1C(=O)c1sc(Nc2ccc(Cl)cc2)nc1C` [Example 120, Bis-[2-(4-Chloro-phenylamino)-4-methyl-thiazole-5-yl]-methanone], the inhibition at 1 µM was 20.3% with NF-κB and 76.2% in the assay on AP-1. Moreover, in the assay on carageenan-induced edema (setting [1]), the inhibition in vivo at 50 mg/kg was 64.6%.

Turning to “4-{3-(4-Methanesulfonyl-phenyl)-5-[5-methyl-5-(2,2,2-trifluoro-ethoxy)-pyridine-2-yl]-thiophene-2-yl}-morpholine [Example 53]”, the “NFkB inhibition @ 1 uM” value in the assay on NF-κB is −2.17. Besides, the “AP-1 inhibition @ 1 uM” value in the assay with AP-1 was 25.04. Also, the “% Protection P” value in the assay with carageenan-induced edema (setting [3]) was found to be 2.08%.

Take `CC(=O)c1ccc(-n2c(-c3cc(-c4ccccc4)c(N4CCOCC4)s3)nc3ccccc3c2=O)cc1` [Example 314]: the “NFkB inhibition @ 1 uM” value in the assay on NF-κB is listed as 0. Besides, the “AP-1 inhibition @ 1 uM” value with AP-1 is 25. Besides, the “% Protection P” value in the assay on carageenan-induced edema (setting [3]) is reported as 36%.

For the molecule `COc1ccc(Nc2nc(N)c(-c3nccc(OCC(F)(F)F)c3C)s2)cc1` [Example 353, (N2-(4-Methoxy-phenyl)-5-[3-Methyl-4-(2,2,2-trifluoro-ethoxy)-pyridin-2-yl]-thiazole-2,4-diamine)], the values for the inhibition at 1 µM in the assay with NF-κB and in the assay on AP-1 were 59.1% and 62%, respectively. The inhibition in vivo at 50 mg/kg with carageenan-induced edema (setting [1]) came to 82.5%.

On to `O=c1c2ccccc2nc(-c2cc(-c3ccncc3)c(N3CCOCC3)s2)n1-c1ccccc1Cl` [Example 308, 3-(2-Chloro-phenyl)-2-(5-morpholin-4-yl-4-pyridin-4-yl-thiophen-2-yl)-3H-quinazolin-4-one], for which the inhibition at 1 µM in the assay on NF-κB was 80%; in the assay on AP-1, 35%. Moreover, in the assay with carageenan-induced edema (setting [1]), the inhibition in vivo at 50 mg/kg was found to be 43%.

For `Nc1nc(Nc2ccc(Cl)cc2)sc1C(=O)c1ccccn1` [Example 340, [4-Amino-2-(4-chloro-phenylamino)-thiazol-5-yl]-pyridin-2-yl-methanone], the inhibition at 1 µM with NF-κB is -18.2%; with AP-1, 57.3%. Also, the inhibition in vivo at 50 mg/kg in the assay with carageenan-induced edema (setting [1]) was 34%.

Turning to `COc1ccc(Nc2nc(N)c(C(=O)c3ccccn3)s2)cc1` [Example 351, ([4-Amino-2-(4-methoxy-phenylamino)-thiazol-5-yl]-pyridin-2-yl-methanone)], the inhibition at 1 µM is -35.9% with NF-κB and 51.5% in the assay with AP-1. Moreover, the inhibition in vivo at 50 mg/kg in the assay with carageenan-induced edema (setting [1]) turned out to be 27%.

Regarding `CS(=O)(=O)c1ccc(C(=O)c2cc(-c3ccncc3)c(N3CCOCC3)s2)cc1` [Example 108, (4-Methylsulfonyl-phenyl)-(5-morpholin-4-yl-4-pyridin-4-yl-thiophen-2-yl)-methanone], the inhibition at 1 µM was -8.31% in the assay on NF-κB and 46.6% in the assay on AP-1. For the same molecule, the inhibition in vivo at 50 mg/kg with carageenan-induced edema (setting [1]) was found to be 54.2%.

With `COc1ccc(Nc2nc(N)c(C(=O)c3ccc(C)cc3)s2)cc1` [Example 344, ([4-Amino-2-(4-methoxy-phenylamino)-thiazol-5-yl]-p-tolyl-methanone)], the inhibition at 1 µM is 49% in the assay on NF-κB and 70.3% with AP-1. The inhibition in vivo at 50 mg/kg with carageenan-induced edema (setting [1]) amounted to 79.8%.

The record behind these values is patent publication US8829014B2, “Thiazole and thiophene analogues, and their use in treating autoimmune diseases and cancers” (Board of Supervisors of Louisiana State University and …, priority 2006, dated 2014).
